Data published in article PMC2852844, “Anti-Parasitic Compounds from Streptomyces sp. Strains Isolated from Mediterranean Sponges” (Marine Drugs, 2010).
Like-named read-outs stand apart in the source and are kept apart here.

Experiments:
[1] = test system: Trypanosoma brucei brucei laboratory strain TC 221; test: Trypanosoma brucei brucei trypomastigote growth inhibition (Alamar Blue); assay type: cell-based
Description: [22] Trypomastigote forms of Trypanosoma brucei brucei laboratory strain TC 221 were cultured in complete Baltz medium [80 mL Baltz medium basic solution, 0.8 mL 2 mercaptoethanol stock solution (20 mM), 0.8 mL penicillin/streptomycin (10,000 U/mL), 16 mL FCS (inactivated for 30 min at 56 °C). Baltz medium basic solution is composed of the following: 500 mL MEM with Earle’s salts and L-glutamine, 3 g Hepes, 0.5 g monohydrate glucose, 0.110 g sodium pyruvate, 0.007 g hypoxanthine, 0.002 g thymidine, 0.0107 g adenosine, 0.0141 g bathocuproine disulfonic acid disodium salt, 0.146 g glutamine, 5 mL sterile non-essential amino acid concentrate (100×, pH 7.5). A defined number of parasites ([…]) were exposed in test chambers of 96-well plates to various concentrations of the test substances (previously dissolved in DMSO) to make a final volume of 200 μL in duplicates. Positive (trypanosomes in culture medium) and negative controls (test substance without trypanosomes) were run simultaneously with each plate. The plates were then incubated at 37 °C in an atmosphere of 5% CO2 for a total time period of 72 h. After 24 h, 20 μL of Alamar Blue was added. […]. The first reading was done at 48 h and subsequently at 72 h. The effect of the test substances was quantified in IC50 values by linear interpolation of three independent measurements.

in vitro = settings: human
Description: (§1) Following the addition of 20 μL of Alamar Blue, the plates were incubated and the ODs measured at 24 h, 48 h and 72 h.

[2] = Cytotoxicity against J774.1 macrophages (Alamar Blue); settings: mouse
Description: as §1

[3] = test system: Leishmania major promastigotes; test: Leishmania major promastigote growth inhibition (Alamar Blue); assay type: cell-based
Description: Leishmania major promastigotes were seeded at a cell density of 1 × 10^7 cells/mL into 96-well plates in complete medium (RPMI with NaHCO3, 10% FCS, 2 mM glutamine, 10 mM Hepes pH 7.2, 100 U/mL penicillin, 50 μg/mL gentamicin, 50 mM 2-mercaptoethanol) without phenol red (200 mL), in the absence or presence of different concentrations of the compounds. These were then incubated for 24 h at 26 °C, 5% CO2 and 95% humidity. Following the addition of 20 mL of Alamar Blue, the plates were incubated again and the optical densities (ODs) measured 24 h and 48 h later with an enzyme-linked immunosorbent assay (ELISA) reader (Multiskan Ascent, Germany) using a test wavelength of 540 nm and a reference wavelength of 630 nm. Absorbance in the absence of compounds was set as 100% of growth. Amphotericin B was used as a reference compound and positive control. The effects of cell density, incubation time and the concentration of DMSO were examined in control experiments. The final concentration of DMSO in the medium never exceeded 1% vol/vol and had no effect on the proliferation of extracellular or intracellular parasites. For each experiment, each drug concentration was assayed in duplicate wells [31]

[4] = Cytotoxicity against 293T kidney epithelial cells (Alamar Blue); settings: human
Description: as §1

## CN[C@@H]1C[C@H]2O[C@@](C)([C@@H]1OC)n1c3ccccc3c3c4c(c5c6ccccc6n2c5c31)C(=O)NC4 [staurosporine]
[1]; reading at 48 h, read-out: IC50 Trypanosoma brucei brucei (48 h)
  IC50: 22 nM
[1]; reading at 72 h, read-out: IC50 Trypanosoma brucei brucei (72 h)
  IC50: 35 nM
In vitro
  IC50: 1300 nM

## CC(C)[C@@H]1NC(=O)[C@H](C)OC(=O)[C@@H](C(C)C)NC(=O)[C@@H](C(C)C)OC(=O)[C@H](C(C)C)NC(=O)[C@H](C)OC(=O)[C@@H](C(C)C)NC(=O)[C@@H](C(C)C)OC(=O)[C@H](C(C)C)NC(=O)[C@H](C)OC(=O)[C@@H](C(C)C)NC(=O)[C@@H](C(C)C)OC1=O [valinomycin]
[2]
  IC50 at 24 h: < 100 nM
[3]
  IC50: < 110 nM
[1]; 48 h, read-out: IC50 Trypanosoma brucei brucei (48 h)
  IC50: 3.2 nM
[1]; 72 h, read-out: IC50 Trypanosoma brucei brucei (72 h)
  IC50: 3.6 nM
[4]
  IC50 at 24 h: 11200 nM
